Entries after “also recorded” stand apart in the source; their conditions may differ.
Key:
[1] = test system: human liver microsomes (HLM); assay: Michaelis-Menten kinetics of dabrafenib metabolism (hydroxy-dabrafenib formation) in HLM; type: in vitro ADME; settings: HLM 0.5 mg/mL, dabrafenib 0.5–200 µM
Experimental: (§1) The 200 µL incubation system contained 0.1 M Tris-HCl (pH = 7.6), 0.5 mg/mL RLM or HLM, 1 mM NADPH, and dabrafenib. […] Carbamazepine (100 ng/mL) was added as the IS. […] Hydroxy-dabrafenib concentrations were quantified via UPLC-MS/MS.
(§2) For kinetic studies, Michaelis-Menten curves were obtained using dabrafenib concentrations (0.5–200 µM) in RLM and HLM. Samples were processed as above. Curves were plotted (dabrafenib concentration vs. V) and fitted nonlinearly (Prism 9, GraphPad).
The concentrations of dabrafenib and hydroxy-dabrafenib were quantified by UPLC-MS/MS. Chromatographic separation was performed on a Waters Acquity UPLC BEH C18 column (2.1 mm × 50 mm, 1.7 µm particle size) maintained at 40 °C. The mobile phase consisted of 0.1% aqueous formic acid (A) and acetonitrile (B), delivered at 0.3 mL/min with the following gradient program: 90% A (0–0.15 min), linear transition to 10% A (0.15–0.8 min), 10% A (0.8–1.5 min), and return to 90% A (1.5–2 min). Total run time was 2 min. Detection employed a Waters Xevo TQS triple quadrupole mass spectrometer (Milford, MA, United States) operated in positive-ion multiple reaction monitoring mode. Quantification transitions were m/z 520.10 → 307.20 for dabrafenib, m/z 536.20 → 323.10 for hydroxy-dabrafenib, and m/z 237.10 → 194.10 for IS.

[2] = target: T1, CYP3A4.1 (Homo sapiens, UniProt P08684); assay: In vitro enzyme kinetics assay using CYP3A4 baculosomes: CYP3A4.1; type: in vitro ADME; settings: dabrafenib 5–250 µM
T1 construct: made in house; host or cells: insect cells (baculovirus, pFastBac-Dual)
T1 sequence (P08684 whole entry): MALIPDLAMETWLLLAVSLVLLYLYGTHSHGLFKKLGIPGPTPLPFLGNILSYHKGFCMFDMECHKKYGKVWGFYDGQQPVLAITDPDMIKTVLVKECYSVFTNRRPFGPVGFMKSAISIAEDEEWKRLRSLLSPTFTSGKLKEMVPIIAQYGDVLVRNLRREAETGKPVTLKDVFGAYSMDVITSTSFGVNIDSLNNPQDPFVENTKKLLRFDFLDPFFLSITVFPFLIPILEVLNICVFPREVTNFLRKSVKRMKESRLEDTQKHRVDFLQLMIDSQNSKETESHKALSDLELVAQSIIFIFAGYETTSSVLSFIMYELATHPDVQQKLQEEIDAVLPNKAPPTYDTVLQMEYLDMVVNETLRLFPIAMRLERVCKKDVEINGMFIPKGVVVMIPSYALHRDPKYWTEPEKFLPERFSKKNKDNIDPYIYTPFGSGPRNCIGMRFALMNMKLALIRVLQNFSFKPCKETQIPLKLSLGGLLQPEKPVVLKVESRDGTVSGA
Experimental: (§3) Recombinant CYP3A4 and CYPb5 proteins were prepared according to our previously established protocol ([Fang et al., 2017]). Briefly, dual expression vectors (pFastBac-Dual) were used to construct CYP3A4-CYPOR and CYPb5-CYPOR expression plasmids. Subsequently, the corresponding baculosomes were harvested by ultracentrifugation using the baculovirus-insect cell expression system, and the target proteins were confirmed. Protein expression levels for each type were qualitatively and quantitatively assessed by Western blotting and BCA assay, respectively.
(§4) The 200 µL incubation system comprised 0.1 M Tris-HCl, 5 µg CYP3A4.1 or other CYP3A4 variants, 5 µg CYPb5, 1 mM NADPH, and dabrafenib. A dabrafenib concentration of 10 µM was used to evaluate variant specific metabolic activity. Michaelis-Menten kinetics were assessed using dabrafenib concentrations of 5, 10, 20, 50, 100, and 250 µM. Subsequent processing steps followed the procedures outlined in Section 2.3.

[3] = target: T2, CYP3A4.20 (Homo sapiens, UniProt P08684); assay: In vitro enzyme kinetics assay using CYP3A4 baculosomes: CYP3A4.20; type: in vitro ADME
T2 construct: made in house; host or cells: insect cells (baculovirus, pFastBac-Dual)
T2 sequence (P08684 with tags, fused parts or gaps limits assumed): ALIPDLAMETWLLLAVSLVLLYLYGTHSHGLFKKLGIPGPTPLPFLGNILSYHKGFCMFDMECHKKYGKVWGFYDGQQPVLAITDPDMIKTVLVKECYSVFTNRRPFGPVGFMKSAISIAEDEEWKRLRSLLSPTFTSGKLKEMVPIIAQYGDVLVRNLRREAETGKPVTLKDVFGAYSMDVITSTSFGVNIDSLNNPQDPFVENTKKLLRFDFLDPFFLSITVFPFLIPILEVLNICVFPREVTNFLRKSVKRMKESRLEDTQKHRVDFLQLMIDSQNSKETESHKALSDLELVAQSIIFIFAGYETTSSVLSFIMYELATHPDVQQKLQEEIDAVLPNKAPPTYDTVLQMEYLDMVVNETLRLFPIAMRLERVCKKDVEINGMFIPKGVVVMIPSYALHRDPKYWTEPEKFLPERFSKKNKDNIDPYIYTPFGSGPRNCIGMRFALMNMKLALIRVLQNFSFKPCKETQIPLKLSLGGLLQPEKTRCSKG
Experimental: as §3, §4

[4] = target: T3, CYP3A4.8 (Homo sapiens, UniProt P08684, R130Q); assay: In vitro enzyme kinetics assay using CYP3A4 baculosomes: CYP3A4.8; type: in vitro ADME
T3 construct: made in house; host or cells: insect cells (baculovirus, pFastBac-Dual)
T3 sequence (P08684 whole entry R130Q): as the sequence (P08684 whole entry) above, with R130Q counted along it
Experimental: as §3, §4

[5] = target: T4, CYP3A4.28 (Homo sapiens, UniProt P08684, L22V); assay: In vitro enzyme kinetics assay using CYP3A4 baculosomes: CYP3A4.28; type: in vitro ADME
T4 construct: made in house; host or cells: insect cells (baculovirus, pFastBac-Dual)
T4 sequence (P08684 whole entry L22V): as the sequence (P08684 whole entry) above, with L22V counted along it
Experimental: as §3, §4

[6] = cited from earlier work
[7] = test system: rat liver microsomes (RLM); assay: Michaelis-Menten kinetics of dabrafenib metabolism (hydroxy-dabrafenib formation) in RLM; type: in vitro ADME; settings: RLM 0.5 mg/mL, dabrafenib 0.5–200 µM
Experimental: RLM was obtained according to established methods ([Wang et al., 2015]). Briefly, rat livers were weighed and homogenized in ice-cold phosphate buffer containing […] sucrose. The homogenate was centrifuged at 17,000 × g for 15 min at 4 °C. The supernatant was transferred to new tubes and recentrifuged at 17,000 × g for 15 min. The resulting supernatant was then ultracentrifuged at 100,000 × g for 60 min at 4 °C. The microsomal pellet was resuspended in ice-cold 0.01 mmol/L PBS (pH = 7.2–7.4). Protein concentration was determined using a Bradford assay kit (Thermo Scientific, Waltham, MA, United States).
as §1, §2
The concentrations of dabrafenib and hydroxy-dabrafenib were quantified by UPLC-MS/MS. […] Quantification transitions were m/z 520.10 → 307.20 for dabrafenib, m/z 536.20 → 323.10 for hydroxy-dabrafenib, and m/z 237.10 → 194.10 for IS.

- Km [1]: 3.5 ± 0.56 µM
- Vmax [2]: 0.266 ± 0.007 pmoL/L/min/μg CYP3A4
- decrease of relative clearance vs CYP3A4.1 [4]: 66.67%
- Vmax ([4]; dabrafenib 5–250 µM): 0.247 ± 0.030 pmoL/L/min/μg CYP3A4
- increase of relative clearance vs CYP3A4.1 [5]: 26.67%
- Vmax ([5]; dabrafenib 5–250 µM): 0.362 ± 0.026 pmoL/L/min/μg CYP3A4
- Km [7]: 14.6 ± 3.08 µM
SMILES: CC(C)(C)c1nc(-c2cccc(NS(=O)(=O)c3c(F)cccc3F)c2F)c(-c2ccnc(N)n2)s1 [Dabrafenib]
- Vmax [1]: 0.16 ± 0.001 pmol/L/min/µg
- metabolic activity toward dabrafenib (in words) [3]: nearly complete loss of activity; also recorded: lack catalytic activity
- Cmax ([6]; single 150 mg oral dose, clinical, ref Puszkiel et al., 2019, Balakirouchenane et al., 2021): 2,160 ng/mL
- oral bioavailability (F) ([6]; single-dose administration, ref Denton et al., 2013): 95%
- Vmax [7]: 0.14 ± 0.01 pmol/L/min/µg
